Assay results: patent US10538567B2, “Compounds as peptidic trigonal GLP1/glucagon/GIP receptor agonists” (priority 2016, dated 2020)
Numbered stars: 1 amine (or outer) side, 2 acyl side, 3 side chain; on linkers, the order of the positions; unused ones are H or OH. Square brackets hold non-standard residues; d marks the D form. Side chains are listed from the residue outwards. Peptide text beside a SMILES is read from it. * marks the point of attachment. γGlu = O=C(O)[C@H](CCC(=O)[*:2])N[*:1]; Stearoyl = CCCCCCCCCCCCCCCCCC(=O)*; Palmitoyl = CCCCCCCCCCCCCCCC(=O)*; AEEA = NCCOCCOCC(=O)O; Aib = CC(C)(N)C(=O)O

Tests used:
[1] = Thioflavin T (ThT) assay for physical stability (fibrillation); assay type: physicochemical; details: 3 mg/ml, 100 mM acetate pH 4.5 with m-cresol, 37° C. shaking
Excerpt: Low physical stability of a peptide solution may lead to amyloid fibril formation, which is observed as well-ordered, thread-like macromolecular structures in the sample, which eventually may lead to gel formation. Thioflavin T (ThT) is widely used to visualize and quantify the presence of misfolded protein aggregates. [Biancalana et al. (2010) Biochimica et Biophysica Acta. 1804 (7): 1405-1412]. […] Enzymol. 309, 274-284]. The time course for fibril formation often follows the characteristic shape of a sigmoidal curve and can be separated into three regions: a lag phase, a fast growth phase, and a plateau phase.
The typical fibril formation process starts with the lag phase in which the amount of partially folded peptide turned into fibrils is not significant enough to be detected. The lag-time corresponds to the time the critical mass of the nucleus is built. Afterwards, a drastic elongation phase follows and fibril concentration increases rapidly.
Investigations were carried out to determine fibrillation tendencies under stress conditions by shaking at 37° C. within Fluoroskan Ascent FL.
For the tests in Fluoroskan Ascent FL, 200 μL sample were placed into a 96 well mictrotiter plate PS, flat bottom, Greiner Fluotrac No. 655076. Plates were sealed with Scotch Tape (Quiagen). Samples were stressed by continuous cycles of 10 s shaking at 960 rpm and 50 s rest period at 37° C. The kinetic was monitored by measuring fluorescence intensity every 20 minutes.
Peptides were diluted in a buffer system to a final concentration of 3 mg/ml. 20 μL of a 10.1 mM ThT solution in H2O were added to 2 mL of peptide solution to receive a final concentration of 100 μM ThT. For each sample eight replicates were tested.
Tht buffer system A) 100 mM Acetate pH 4.5 including m-cresol (100 mM Natriumacetat trihydrat, pH adjustment using 2N CH3COOH, 2.7 mg/mL m-cresol) Tht buffer system B) 100 mM citrate buffer pH 6.0
Lag time in hours in Thioflavin T (ThT) assay of peptide samples was determined in ThT buffer system A as described in Methods.

[2] = system: female diabetic db/db mice; assay: Acute effects after s.c. treatment on blood glucose in non-fasting female diabetic db/db mice; assay type: in vivo; details: single 30 μg/kg s.c.
Protocol: Female healthy, lean BKS.Cg-(lean)/OlaHsd and diabetes-prone, obese BKS.Cg-+Lepr^db/+Lepr^db/OlaHsd mice were ordered group housed from Envigo RMS Inc., shipped group housed and remained group housed in shoebox caging with wood chip bedding until day 15 of the predose phase. At the study start mice were approximately 12 weeks old.
Mice were housed under vivarium conditions including a 12 h light/dark cycle (light phase 04:00 AM-4:00 PM), room temperatures between 23-26° C. and a relative humidity between 30-70%. All animals had free access to water and Purina Fomulab Diet 5008.
On predose day 9 blood glucose and body mass (approximately between 08:00-10:00 AM) as well as HbA1c measurements were performed. On day 15 of the predose phase animals were assigned to treatment groups (n=8) and to new cages to match mean HbA1c and body masses between all db/db groups. An age-matched lean group was included in the study as a healthy, lean reference.
Prior to day 1 of the dosing phase, the test article was diluted with Phosphate Buffered Saline (PBS, Gibco, without CaCl2 and MgCl2) to a concentration of 1 mg/mL and aliquots of this stock solution were stored at approximately ≤−60° C. On day 1 of the dosing phase the stock aliquot was thawed and the injected test article solution was prepared fresh by diluting it with PBS to achieve the desired concentration.
On Day 1 of the dosing phase db/db mice were either treated once with a s.c. injection of PBS-vehicle or 30 μg/kg test article. The lean reference group was treated once with a s.c. injection of PBS-vehicle. The dosing was initiated and completed between 08:00 and 10:00 AM. The applied volume was 5 ml/kg and the dose was adjusted to the most recent body mass recording of each individual.
Animals had unlimited access to water and feed during the experiment. On day 1 of the dosing phase approximately 5 μL of blood were collected via tail clips at minute −30 and 0 prior to any other inlife activities. At minute 0 mice received a s.c. dose of either PBS-vehicle or 30 μg/kg test article. Further blood samples were harvested at hour 0.25, 0.5, 1, 1.5, 2, 3, 4, 6, 8, and 24 post-dose. Glucose measurements were performed in whole blood using AlphaTRAK glucometers. If the glucose concentrations of two measurements differed by more than 20 mg/dL a third value was recorded. The Area Under the Curve (AUC) for blood glucose was calculated via the trapezoid method and for the duration of the 24 post-dose hours.
In the Figures data are depicted as means±SEM. […] A One Way Analysis of Variance and multiple comparisons (Dunnett's Method) were performed comparing the group of diabetic, obese db/db vehicle mice (n=8) with each diabetic, obese db/db test article treated mice (n=8). […] Non-diabetic, lean-vehicle group data are depicted in the Figures serving as a reference dataset for the non-obese, non-diabetic state.

CCCCCCCCCCCCCCCC(=O)N[C@@H](CCC(=O)NCCCC[C@H](NC(=O)[C@H](CC(C)C)NC(=O)[C@H](CCCCN)NC(=O)[C@H](CO)NC(=O)[C@H](CC(C)C)NC(=O)[C@H](CC(=O)O)NC(=O)[C@H](CO)NC(=O)[C@@H](NC(=O)[C@H](Cc1ccccc1)NC(=O)[C@@H](NC(=O)CNC(=O)[C@H](Cc1c[nH]cn1)NC(=O)C(C)(C)NC(=O)[C@@H](N)Cc1c[nH]cn1)[C@@H](C)O)[C@@H](C)O)C(=O)N[C@@H](CCC(=O)O)C(=O)N[C@@H](CCC(=O)O)C(=O)N[C@@H](CCC(N)=O)C(=O)N[C@@H](CCCNC(=N)N)C(=O)N[C@@H](CCC(N)=O)C(=O)NC(C)(C)C(=O)N[C@@H](CCC(=O)O)C(=O)N[C@@H](Cc1ccccc1)C(=O)N[C@H](C(=O)N[C@@H](CCC(=O)O)C(=O)N[C@@H](Cc1c[nH]c2ccccc12)C(=O)N[C@@H](CC(C)C)C(=O)N[C@@H](CCCCN)C(=O)N[C@@H](C)C(=O)N[C@H](C)C(=O)NCC(=O)N1CCC[C@H]1C(=O)N1CCC[C@H]1C(=O)N[C@@H](CO)C(=O)NC(C)(C)C(=O)N[C@@H](CCCCN)C(=O)N1CCC[C@H]1C(=O)N1CCC[C@H]1C(=O)N1CCC[C@H]1C(=O)N[C@@H](CCCCN)C(N)=O)[C@@H](C)CC)C(=O)O [SEQ ID NO: 16, H-Aib-H-G-T-F-T-S-D-L-S-K-L-K[gGlu-Palm]-E-E-Q-R-Q-Aib-E-F-I-E-W-L-K-A-dAla-G-P-P-S-Aib-K-P-P-P-K-NH2] (H-H[Aib]HGTFTSDLSKLK([γGlu-Palmitoyl])EEQRQ[Aib]EFIEWLKA[dA]GPPS[Aib]KPPPK-NH2)
Lag time before increase [1]: >45 h
mean blood glucose concentration 24 hours post-dose relative to baseline [2]: at or close to baseline

CCCCCCCCCCCCCCCCCC(=O)N[C@@H](CCC(=O)NCCCC[C@H](NC(=O)[C@H](CC(C)C)NC(=O)[C@H](CCCCN)NC(=O)[C@H](CO)NC(=O)[C@H](CC(C)C)NC(=O)[C@H](CC(=O)O)NC(=O)[C@H](CO)NC(=O)[C@@H](NC(=O)[C@H](Cc1ccccc1)NC(=O)[C@@H](NC(=O)CNC(=O)[C@H](Cc1c[nH]cn1)NC(=O)C(C)(C)NC(=O)[C@@H](N)Cc1c[nH]cn1)[C@@H](C)O)[C@@H](C)O)C(=O)N[C@@H](CCC(=O)O)C(=O)N[C@@H](CCC(=O)O)C(=O)N[C@@H](CCC(N)=O)C(=O)N[C@@H](CCCNC(=N)N)C(=O)N[C@@H](CCC(N)=O)C(=O)NC(C)(C)C(=O)N[C@@H](CCC(=O)O)C(=O)N[C@@H](Cc1ccccc1)C(=O)N[C@H](C(=O)N[C@@H](CCC(=O)O)C(=O)N[C@@H](Cc1c[nH]c2ccccc12)C(=O)N[C@@H](CC(C)C)C(=O)N[C@@H](CCCCN)C(=O)N[C@@H](C)C(=O)NCC(=O)NCC(=O)N1CCC[C@H]1C(=O)N1CCC[C@H]1C(=O)N[C@@H](CO)C(=O)NC(C)(C)C(=O)N[C@@H](CCCCN)C(=O)N1CCC[C@H]1C(=O)N1CCC[C@H]1C(=O)N1CCC[C@H]1C(=O)N[C@@H](CCCCN)C(N)=O)[C@@H](C)CC)C(=O)O [SEQ ID NO: 19, H-Aib-H-G-T-F-T-S-D-L-S-K-L-K[gGlu-Stea]-E-E-Q-R-Q-Aib-E-F-I-E-W-L-K-A-G-G-P-P-S-Aib-K-P-P-P-K-NH2] (H-H[Aib]HGTFTSDLSKLK([γGlu-Stearoyl])EEQRQ[Aib]EFIEWLKAGGPPS[Aib]KPPPK-NH2)
Lag time before increase [1]: >45 h

H-Aib-H-G-T-F-T-S-D-L-S-K-L-K[gGlu-gGlu-AEEA-Palm]-E-E-Q-R-Q-Aib-E-F-I-E-W-L-K-A-G-G-P-P-S-Aib-K-P-P-P-K-NH2 (H-H[Aib]HGTFTSDLSKLK([γGlu-γGlu-AEEA-Palmitoyl])EEQRQ[Aib]EFIEWLKAGGPPS[Aib]KPPPK-NH2) [SEQ ID NO: 26]
mean blood glucose concentration 24 hours post-dose relative to baseline [2]: at or close to baseline
